Measured values published in patent publication US11999727B2 (Tango Therapeutics, Inc., priority 2020, dated 2024).

Tests used:
[1] = target: T1, PRMT5 (Homo sapiens, UniProt O14744); assay: PRMT5 biochemical IC50 assay with SAM as cofactor; conditions: PRMT5, SAM as cofactor; read-out: SAM IC50
T1 construct: purchased Viva (custom protein)

[2] = target: T1, PRMT5; assay: PRMT5 biochemical IC50 assay with no cofactor; conditions: PRMT5, no cofactor; read-out: No Cofactor/ rel IC50
Source text: Table 1 indicates IC50 values (μM) against PRMT5 for exemplary compounds in the presence of SAM as cofactor, with no cofactor, and with MTA as cofactor, respectively (columns 4-6). […] Ki values can be calculated from the IC50 values as described in the Examples section. As detailed in the Examples section, for the assay performed in the presence of SAM, IC50=Ki×1.5 (Ki=IC50/1.5).

[3] = target: T1, PRMT5; assay: PRMT5 biochemical IC50 assay with MTA as cofactor; conditions: PRMT5, MTA as cofactor; read-out: MTA IC50
[4] = tested on: HAP1 MTAP-intact cell line; assay: SDMA in-cell western assay, HAP1 MTAP-intact; type: cell-based; conditions: Homo sapiens, HAP1, SDMA in-cell western, HAP1 MTAP-intact; read-out: MTAP HAP1 intact IC50
In short: (§1)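 IC50 values come from SDMA signal quantified by in-cell western in two HAP1 lines, one with native MTAP levels and one lacking MTAP.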

[5] = tested on: HAP1 MTAP-deleted cell line; assay: SDMA in-cell western assay, HAP1 MTAP-deleted; type: cell-based; conditions: for IC50: Homo sapiens, HAP1, SDMA in-cell western, HAP1 MTAP-deleted, read-out: HAP 1 MTAP deleted IC50; for MTAP intact/deleted ratio: IC50 ratio HAP1 MTAP-intact / HAP1 MTAP-deleted, SDMA in-cell western
In short: as §1

[6] = tested on: HAP1 MTAP-deleted cell line; assay: Viability assay, MTAP-deleted cell line; type: cell-based; conditions: Homo sapiens, HAP1, viability assay, MTAP-deleted cell line; read-out: HAP1 MTAP deleted viability
Source text: Table 1 additionally indicates IC50 values in a viability assay for the MTAP-deleted cell line (column 10), indicating the effect of treatment with compound on cell survival.

T1 sequence (O14744 whole entry): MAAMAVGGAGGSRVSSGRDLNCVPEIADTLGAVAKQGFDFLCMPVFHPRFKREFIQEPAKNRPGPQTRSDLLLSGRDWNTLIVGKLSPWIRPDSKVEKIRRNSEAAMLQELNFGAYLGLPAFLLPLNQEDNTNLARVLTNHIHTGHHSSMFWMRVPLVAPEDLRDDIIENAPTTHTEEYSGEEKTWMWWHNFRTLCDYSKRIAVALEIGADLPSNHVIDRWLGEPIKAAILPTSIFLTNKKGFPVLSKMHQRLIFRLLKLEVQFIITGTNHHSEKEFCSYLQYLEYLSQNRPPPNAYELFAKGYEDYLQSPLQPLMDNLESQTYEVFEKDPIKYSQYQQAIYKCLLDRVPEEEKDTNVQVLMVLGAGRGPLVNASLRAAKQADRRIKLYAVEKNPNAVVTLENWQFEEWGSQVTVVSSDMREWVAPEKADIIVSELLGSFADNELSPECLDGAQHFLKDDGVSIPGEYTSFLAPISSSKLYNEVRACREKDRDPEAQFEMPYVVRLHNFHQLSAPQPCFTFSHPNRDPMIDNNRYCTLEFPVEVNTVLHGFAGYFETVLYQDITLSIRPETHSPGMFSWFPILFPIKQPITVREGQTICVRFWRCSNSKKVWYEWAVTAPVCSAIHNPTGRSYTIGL
T1 sequence (Q9BQA1 whole entry partner): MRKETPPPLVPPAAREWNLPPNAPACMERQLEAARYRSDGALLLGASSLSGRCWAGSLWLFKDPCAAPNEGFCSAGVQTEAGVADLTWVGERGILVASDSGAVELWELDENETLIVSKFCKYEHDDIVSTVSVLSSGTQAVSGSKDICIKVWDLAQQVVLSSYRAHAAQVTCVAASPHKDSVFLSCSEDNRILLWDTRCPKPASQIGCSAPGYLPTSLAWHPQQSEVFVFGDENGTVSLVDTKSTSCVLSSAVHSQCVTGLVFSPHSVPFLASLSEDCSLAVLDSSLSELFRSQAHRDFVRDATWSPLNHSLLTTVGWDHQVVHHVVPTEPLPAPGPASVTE

| SMILES | IC50 [1] [nM] | IC50 [2] [nM] | IC50 [3] [nM] | IC50 [4] [nM] | IC50 [5] [nM] | MTAP intact/deleted ratio [5] | IC50 [6] [nM] |
| --- | --- | --- | --- | --- | --- | --- | --- |
| Cc1cncc(NC(=O)C(=O)N2C[C@@H](C)CC[C@@H]2c2cccs2)c1 (racemic) [Compound 60, rac-2-((2R,5S)-5-methyl-2-(thiophen-2-yl)piperidin-1-yl)-N-(5-methylpyridin-3-yl)-2-oxoacetamide] | > 500 | > 500 | 50 to 500 | > 1000 | > 1000 | C (an IC50 ratio of less than 3 fold) | > 10000 |
| Cc1cncc(NC(=O)C(=O)N2C[C@H](C)CC[C@H]2c2cccc(F)c2)c1 (racemic) [Compound 70, rac-2-[(2S,5R)-2-(3-fluorophenyl)-5-methyl-1-piperidyl]-N-(5-methyl-3-pyridyl)-2-oxo-acetamide] | > 500 | > 500 | 50 to 500 | > 1000 | > 1000 | C (an IC50 ratio of less than 3 fold) | > 10000 |
| C[C@@H]1CC[C@H](c2ccnn2C)N(C(=O)C(=O)Nc2cncc(C(N)=O)c2)C1 (racemic) [Compound 72, 5-(2-(5-methyl-2-(1-methyl-1H-pyrazol-5-yl)piperidin-1-yl)-2-oxoacetamido)nicotinamide] | 50 to 500 | 50 to 500 | 50 to 500 | > 1000 | 100 to 1000 | A (an IC50 ratio greater than or equal to 10 fold) | > 10000 |
| NC(=O)c1cncc(NC(=O)C(=O)N2C[C@@H]3CC[C@@H](C3)[C@@H]2c2cccs2)c1 (racemic) [Compound 79, 5-[[2-oxo-2-[(1S,4S,5R)-4-(2-thienyl)-3-azabicyclo[3.2.1]octan-3-yl]acetyl]amino]pyridine-3-carboxamide] | 50 to 500 | > 500 | 50 to 500 | > 1000 | 100 to 1000 | A (an IC50 ratio greater than or equal to 10 fold) | > 10000 |
| Cc1cncc(NC(=O)C(=O)N2C[C@H](C)CC[C@H]2c2ccc3c(c2)CCCC3)c1 (racemic) [Compound 80, N-(5-methyl-3-pyridyl)-2-[(2S,5R)-5-methyl-2-tetralin-6-yl-1-piperidyl]-2-oxo-acetamide] | > 500 | > 500 | 50 to 500 | > 1000 | > 1000 | C (an IC50 ratio of less than 3 fold) | > 10000 |

Second part, led by results:

| IC50 [1] [nM] | IC50 [2] [nM] | IC50 [3] [nM] | IC50 [4] [nM] | IC50 [5] [nM] | SMILES | MTAP intact/deleted ratio [5] | IC50 [6] [nM] |
| --- | --- | --- | --- | --- | --- | --- | --- |
| 50 to 500 | 50 to 500 | < 50 | > 1000 | 100 to 1000 | Cc1cc(NC(=O)C(=O)N2CCCCC2c2ccccc2)cnc1N (racemic) [Compound 53, N-(6-Amino-5-methyl-3-pyridyl)-2-oxo-2-(2-phenyl-1-piperidyl)acetamide] | A (an IC50 ratio greater than or equal to 10 fold) | > 10000 |
| 50 to 500 | 50 to 500 | 50 to 500 | 100 to 1000 | < 100 | Cc1cc(NC(=O)C(=O)N2CC(C)(C)CCC2c2ccccc2)cnc1N (racemic) [Compound 56, N-(6-amino-5-methylpyridin-3-yl)-2-(5,5-dimethyl-2-phenylpiperidin-1-yl)-2-oxoacetamide] | B (an IC50 ratio greater than or equal to 3 fold but lower than 10 fold) | 1000 to 10000 |
| 50 to 500 | 50 to 500 | < 50 | > 1000 | 100 to 1000 | Cc1cc(NC(=O)C(=O)N2C[C@H](C)CC[C@@H]2c2ccnn2C)cnc1N (racemic) [Compound 66, rac-N-(6-amino-5-methylpyridin-3-yl)-2-((2R,5R)-5-methyl-2-(1-methyl-1H-pyrazol-5-yl)piperidin-1-yl)-2-oxoacetamide] | A (an IC50 ratio greater than or equal to 10 fold) | > 10000 |
